Experimental data: PubChem BioAssay AID248 (DTP/NCI, 2004)
“And” between values parts separate entries of the source, which are not always exact repeats. Equal entries are not always repeated. Inconclusive results and toxic doses are left out.

System: L1210 leukemia ip in BDF1 mice, survival T/C
Assay: NCI In Vivo Anticancer Drug Screen. Data for tumor model L1210 Leukemia (intraperitoneal) in B6D2F1 (BDF1) mice
Details: endpoint: mean survival time, higher = longer survival
How it was run: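 Transplantable tumor model; survival measured in treated vs vehicle control mice. Value = treated/control.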

[1] = dose: 100.0 mg/kg/injection, schedule: Q01DX001 (ip), vehicle: carboxymethylcellulose (CMC)
[2] = dose: 200.0 mg/kg/injection, schedule: Q01DX001 (ip), vehicle: carboxymethylcellulose (CMC)
[3] = dose: 400.0 mg/kg/injection, schedule: Q01DX001 (ip), vehicle: carboxymethylcellulose (CMC)
[4] = dose: 100.0 mg/kg/injection, schedule: Q04DX003 (ip), vehicle: saline with Tween-80
[5] = dose: 200.0 mg/kg/injection, schedule: Q04DX003 (ip), vehicle: saline with Tween-80
[6] = dose: 400.0 mg/kg/injection, schedule: Q04DX003 (ip), vehicle: saline with Tween-80
[7] = dose: 100.0 mg/kg/injection, schedule: Q04DX002 (ip), vehicle: Klucel (hydroxypropylcellulose) (HPC)
[8] = dose: 200.0 mg/kg/injection, schedule: Q04DX002 (ip), vehicle: Klucel (hydroxypropylcellulose) (HPC)
[9] = dose: 400.0 mg/kg/injection, schedule: Q04DX002 (ip), vehicle: Klucel (hydroxypropylcellulose) (HPC)
[10] = dose: 100.0 mg/kg/injection, schedule: Q01DX001 (ip), vehicle: Klucel (hydroxypropylcellulose) (HPC)
[11] = dose: 200.0 mg/kg/injection, schedule: Q01DX001 (ip), vehicle: Klucel (hydroxypropylcellulose) (HPC)
[12] = dose: 400.0 mg/kg/injection, schedule: Q01DX001 (ip), vehicle: Klucel (hydroxypropylcellulose) (HPC)

In the case of `COc1ccccc1/C=N\N/C(N)=N\N=C\c1ccccc1OC`, the T/C (dose: 15.0 mg/kg/injection, schedule: Q01DX Z (ip), vehicle: carboxymethylcellulose (CMC)) is reported as 98 % of control, the T/C (dose: 30.0 mg/kg/injection, schedule: Q01DX Z (ip), vehicle: carboxymethylcellulose (CMC)) is reported as 103 % of control and the T/C (dose: 60.0 mg/kg/injection, schedule: Q01DX Z (ip), vehicle: carboxymethylcellulose (CMC)) is reported as 103 % of control and 117 % of control. The T/C (dose: 120.0 mg/kg/injection, schedule: Q01DX Z (ip), vehicle: carboxymethylcellulose (CMC)) was 101 % of control and 117 % of control, the T/C (dose: 240.0 mg/kg/injection, schedule: Q01DX Z (ip), vehicle: carboxymethylcellulose (CMC)) was 108 % of control and the T/C (dose: 240.0 mg/kg/injection, schedule: Q01DX Z (oral), vehicle: carboxymethylcellulose (CMC)) was 97 % of control. The T/C (dose: 480.0 mg/kg/injection, schedule: Q01DX Z (ip), vehicle: carboxymethylcellulose (CMC)) was 121 % of control, the T/C (dose: 480.0 mg/kg/injection, schedule: Q01DX Z (oral), vehicle: carboxymethylcellulose (CMC)) was 105 % of control and the T/C (dose: 960.0 mg/kg/injection, schedule: Q01DX Z (oral), vehicle: carboxymethylcellulose (CMC)) was 95 % of control. The T/C (dose: 1920.0 mg/kg/injection, schedule: Q01DX Z (oral), vehicle: carboxymethylcellulose (CMC)) was 105 % of control.
`CC(C)Oc1ccc(CC(N)C(=O)O)cc1N(CCCl)CCCl` (stereo not given) was tested, and the T/C (dose: 0.44 mg/kg/injection, schedule: Q01DX009 (ip), vehicle: carboxymethylcellulose (CMC)) was 108 % of control, the T/C (dose: 0.5 mg/kg/injection, schedule: Q01DX009 (ip), vehicle: saline) was 120 % of control and the T/C (dose: 0.6 mg/kg/injection, schedule: Q01DX009 (ip), vehicle: carboxymethylcellulose (CMC)) was 121 % of control. The T/C (dose: 0.66 mg/kg/injection, schedule: Q01DX009 (ip), vehicle: carboxymethylcellulose (CMC)) was 111 % of control, the T/C (dose: 1.0 mg/kg/injection, schedule: Q01DX009 (ip), vehicle: carboxymethylcellulose (CMC)) was 124 % of control and the T/C (dose: 1.0 mg/kg/injection, schedule: Q01DX009 (ip), vehicle: saline) was 114 % of control. For the same compound, the T/C (dose: 1.5 mg/kg/injection, schedule: Q01DX001 (ip), vehicle: carboxymethylcellulose (CMC)) was 108 % of control, the T/C (dose: 2.0 mg/kg/injection, schedule: Q01DX009 (ip), vehicle: saline) was 117 % of control and the T/C (dose: 2.2 mg/kg/injection, schedule: Q01DX001 (ip), vehicle: carboxymethylcellulose (CMC)) was 114 % of control. For the same compound, the T/C (dose: 3.3 mg/kg/injection, schedule: Q01DX001 (ip), vehicle: carboxymethylcellulose (CMC)) was 119 % of control, the T/C (dose: 3.3 mg/kg/injection, schedule: Q01DX009 (ip), vehicle: carboxymethylcellulose (CMC)) was 158 % of control and the T/C (dose: 5.0 mg/kg/injection, schedule: Q01DX001 (ip), vehicle: carboxymethylcellulose (CMC)) was 114 % of control. The T/C (dose: 5.0 mg/kg/injection, schedule: Q01DX001 (ip), vehicle: saline with Tween-80) was 116 % of control, the T/C (dose: 5.0 mg/kg/injection, schedule: Q01DX009 (ip), vehicle: carboxymethylcellulose (CMC)) was 164 % of control and 166 % of control and the T/C (dose: 7.5 mg/kg/injection, schedule: Q01DX001 (ip), vehicle: saline with Tween-80) was 116 % of control. The T/C (dose: 7.5 mg/kg/injection, schedule: Q01DX009 (ip), vehicle: carboxymethylcellulose (CMC)) was 205 % of control, the T/C (dose: 10.0 mg/kg/injection, schedule: Q01DX001 (ip), vehicle: saline with Tween-80) was 116 % of control and the T/C (dose: 10.0 mg/kg/injection, schedule: Q01DX009 (ip), vehicle: carboxymethylcellulose (CMC)) was 213 % of control. The T/C (dose: 15.0 mg/kg/injection, schedule: Q01DX001 (ip), vehicle: carboxymethylcellulose (CMC)) was 124 % of control, the T/C (dose: 15.0 mg/kg/injection, schedule: Q01DX009 (ip), vehicle: carboxymethylcellulose (CMC)) was 123 % of control and the T/C (dose: 25.0 mg/kg/injection, schedule: Q01DX001 (ip), vehicle: Klucel (hydroxypropylcellulose) (HPC)) was 177 % of control. For the same compound, the T/C (dose: 30.0 mg/kg/injection, schedule: Q01DX009 (ip), vehicle: saline) was 90 % of control.
`Cc1nc(N)c2c(n1)C(Cc1ccccc1)N(C(=O)c1ccccc1)C2` (stereo not given) was tested, and the T/C [1] was 97 % of control, the T/C [2] was 97 % of control and the T/C [3] was 103 % of control.
`COC(=O)Nc1nc2ccccc2[nH]1` was tested, and the T/C (dose: 50.0 mg/kg/injection, schedule: Q01DX009 (ip), vehicle: saline with Tween-80) was 97 % of control, the T/C [1] was 94 % of control and the T/C (dose: 100.0 mg/kg/injection, schedule: Q01DX009 (ip), vehicle: saline with Tween-80) was 101 % of control. For the same compound, the T/C [4] was 94 % of control, the T/C [2] was 97 % of control and the T/C (dose: 200.0 mg/kg/injection, schedule: Q01DX009 (ip), vehicle: saline with Tween-80) was 97 % of control. The T/C [5] was 103 % of control, the T/C [3] was 100 % of control and the T/C (dose: 400.0 mg/kg/injection, schedule: Q01DX009 (ip), vehicle: saline with Tween-80) was 116 % of control. The T/C [6] was 105 % of control.
With `CC(C)CSC(SCC(C)C)C(OC(=O)c1ccccc1)C(OC(=O)c1ccccc1)C(COC(=O)c1ccccc1)OC(=O)c1ccccc1` (stereo not given) the T/C [7] was 103 % of control, the T/C [8] was 94 % of control and the T/C [9] was 87 % of control.
In the case of `CCOc1c(OC)c2c3c(c(-c4c(C)cc5c(C(C)C)c(OCC)c(OC)c6c5c4OC6OC)c(C)cc3c1C(C)C)OC2OC` (stereo not given), the T/C [10] is reported as 94 % of control, the T/C [11] is reported as 93 % of control and the T/C [12] is reported as 100 % of control.
`CC(=O)[C@@]1(O)CC[C@H]2[C@@H]3CCC4=CC(=O)CC[C@]4(C)[C@@]3(F)[C@@H](O)C[C@@]21C` was tested, and the T/C (dose: 100.0 mg/kg/injection, schedule: Q01DX Z (sc), vehicle: steriod suspending solution) was 98 % of control, the T/C (dose: 200.0 mg/kg/injection, schedule: Q01DX Z (sc), vehicle: steriod suspending solution) was 98 % of control and the T/C (dose: 400.0 mg/kg/injection, schedule: Q01DX Z (sc), vehicle: steriod suspending solution) was 100 % of control.
`O=C1CSC(=S)N1c1ccccc1` was tested, and the T/C [1] was 95 % of control, the T/C [4] was 96 % of control and the T/C [2] was 97 % of control. For the same compound, the T/C [5] was 93 % of control, the T/C [3] was 93 % of control and the T/C [6] was 90 % of control.
With `COc1c(OC)c(C(C)C)c2c(c1C(=O)O)C(=O)OC2=O` the T/C [10] was 103 % of control, the T/C (dose: 100.0 mg/kg/injection, schedule: Q04DX003 (ip), vehicle: Klucel (hydroxypropylcellulose) (HPC)) was 96 % of control and the T/C [11] was 103 % of control. For the same compound, the T/C (dose: 200.0 mg/kg/injection, schedule: Q04DX003 (ip), vehicle: Klucel (hydroxypropylcellulose) (HPC)) was 88 % of control, the T/C [12] was 100 % of control and the T/C (dose: 400.0 mg/kg/injection, schedule: Q04DX003 (ip), vehicle: Klucel (hydroxypropylcellulose) (HPC)) was 89 % of control.
In the case of `COP(=O)(OC)c1nc(P(=O)(OC)OC)nc(P(=O)(OC)OC)n1`, the T/C (dose: 50.0 mg/kg/injection, schedule: Q01DX001 (ip), vehicle: saline) is reported as 98 % of control, the T/C (dose: 100.0 mg/kg/injection, schedule: Q01DX001 (ip), vehicle: saline) is reported as 93 % of control and the T/C (dose: 200.0 mg/kg/injection, schedule: Q01DX001 (ip), vehicle: saline) is reported as 93 % of control. For the same compound, the T/C (dose: 400.0 mg/kg/injection, schedule: Q01DX001 (ip), vehicle: saline) was 93 % of control.
In the case of `CCCCNCCCC(C(=O)O)c1ccccc1` (stereo not given), the T/C (dose: 75.0 mg/kg/injection, schedule: Q01DX001 (ip), vehicle: carboxymethylcellulose (CMC)) is reported as 100 % of control, the T/C (dose: 150.0 mg/kg/injection, schedule: Q01DX001 (ip), vehicle: carboxymethylcellulose (CMC)) is reported as 90 % of control and the T/C (dose: 300.0 mg/kg/injection, schedule: Q01DX001 (ip), vehicle: carboxymethylcellulose (CMC)) is reported as 90 % of control.
In the case of `NNC(=O)c1n[nH]c(=S)[nH]c1=O`, the T/C [1] is reported as 98 % of control, the T/C [2] is reported as 103 % of control and the T/C [3] is reported as 95 % of control.
`COC(=O)Cc1cc(=O)c2ccccc2[nH]1` was tested, and the T/C (dose: 50.0 mg/kg/injection, schedule: Q01DX009 (ip), vehicle: saline) was 94 % of control, the T/C (dose: 100.0 mg/kg/injection, schedule: Q01DX009 (ip), vehicle: saline) was 103 % of control and the T/C (dose: 100.0 mg/kg/injection, schedule: Q04DX003 (ip), vehicle: saline) was 96 % of control. The T/C (dose: 200.0 mg/kg/injection, schedule: Q01DX009 (ip), vehicle: saline) was 93 % of control, the T/C (dose: 200.0 mg/kg/injection, schedule: Q04DX003 (ip), vehicle: saline) was 96 % of control and the T/C (dose: 400.0 mg/kg/injection, schedule: Q04DX003 (ip), vehicle: saline) was 91 % of control.
`C1=C(c2ccccc2)N(CCc2ccccc2)C(c2ccccc2)=CN1Cc1ccccc1` was tested, and the T/C [7] was 96 % of control, the T/C [8] was 103 % of control and the T/C [9] was 92 % of control.
